Measured values published in a melting point compilation (Tetko et al.; mined from patent text by program, amines drawn as free bases though some values may be those of a salt).

SMILES | melting point [°C]
CCCCCN(CC(=O)OC(C)(C)C)C(=O)C(CCC(=O)OC)CS(=O)(=O)c1ccc2ccccc2c1 (stereo unspecified) | 85 to 87
O=C(NC(=O)c1c(F)cccc1F)Nc1ccc(Br)cn1 | 232 to 235
CCOC(=O)N1CCN(C2=Nc3ccccc3Nc3ccsc32)CC1 | 166
C=C(C)C(=O)OCc1c(Br)c(Br)c(COC(=O)C(=C)C)c(Br)c1Br | 148 to 149
CN=Cc1ccc2cc(OC)ccc2c1 | 109 to 110
Cc1ccc(-c2cnc(-c3cc(C(F)(F)F)cc(C(F)(F)F)c3)s2)s1 | 120 to 121
CSc1c(C)[nH]c2ccc([N+](=O)[O-])cc12 | 198
Cc1ccc(NC(=O)c2cn(-c3ccccc3)c3ccccc3c2=O)nc1 | 248 to 250
CCCOc1ccc(C)cc1-c1nc2c(CCC)nn(C)c2c(=O)[nH]1 | 115 to 116
O=C1C=C(NC(=O)C(=O)c2cn(Cc3ccc(F)cc3)c3cc4c(cc23)OCO4)CO1 | 210 to 212
NC(=S)NN=C(CNC(=O)C1CCCCC1)c1ccccc1 | 104 to 110
Cc1ccc(S(=O)(=O)Nc2ccc(C#N)cc2)cc1 | 182 to 184
CN1CCN(c2ccccc2CO)[C@@H]2c3ccccc3C[C@H]21 (relative stereo) | 166 to 167
Cc1oc(-c2ccccc2)nc1COc1ccc(Cn2cc(CCCCC(=O)O)c(-c3ccccc3)n2)cc1 | 109 to 110
CON(C)CCNc1ncnc2nc[nH]c12 | 168 to 170
N=C(N)c1ccc(-c2ccc(-n3cc(CCC(=O)O)c4ccccc43)nn2)cc1 | 288 to 292
CCNC(C)c1cc(S(N)(=O)=O)sc1S(=O)(=O)CC (stereo unspecified) | 135 to 138
CN1CCN(c2cc(NC(=O)c3ccc(-c4ccncc4)cc3)ccc2Cl)CC1 | 218 to 219
CC1(C)CCC(C)(C)c2c(O)cc(C=O)cc21 | 144
CCOC(=O)c1ncn2c1[C@@H]1CCCN1C(=S)c1ccccc1-2 | 227 to 229
Clc1cnn(-c2ccc(CBr)c(Cl)c2)c1 | 77 to 78
CC12C=CC(C1)C(C(N)=O)C2(C(N)=O)c1cccc(Br)c1 (stereo unspecified) | 111 to 113

SMILES | melting point [°C]
CCN(CC)CCc1c(C)[nH]c(C=C2C(=O)[NH+]([O-])N=C2c2cnccn2)c1C (stereo unspecified) | 192
CN(C(=O)C1CCCCC1)c1ccccc1C(c1ccc(O)cc1)c1ccc(O)cc1 | 250 to 252
N#Cc1cnc2sc(-c3ccccc3)cc2c1NCCc1c[nH]cn1 | > 245
C=CCN1C2CCC1C1CCC2N1C(c1ccc(C(=O)N(CC)CC)cc1)c1cccc(OC)c1 (stereo unspecified) | 99 to 101
Cc1cc(C#CC2(O)CN3CCC2CC3)cc(C)c1OCCOc1ccccc1 (stereo unspecified) | 141 to 142
CC(C)(C)c1cc(CCc2ccccc2NC(=O)NCCc2ccccn2)cc(C(C)(C)C)c1O | 180
COC(=O)c1ccc(CC(C)NCC(O)c2cccc(C(F)(F)F)c2)cc1 (stereo unspecified) | 73 to 88
CC1=Nc2ccccc2S(=O)(=O)N1 | 260 to 261
COC(=O)c1cscc1NC(=O)COc1ccc(Br)cn1 | 138 to 140
Nc1ccc2[nH]c3ccc([N+](=O)[O-])cc3c(=O)c2c1 | > 350
O=C(Nc1ccncn1)NN1CC=CCC1 | 188
CN1C(=O)CCCc2cc(Nc3ncc(Cl)c(Nc4ccc(N5CCOCC5)cc4C(N)=O)n3)ccc21 | 288 to 290
O=Cc1cc(Cl)cc2c1OC(C(F)(F)F)C(C(=O)O)=C2 (stereo unspecified) | 243 to 252
C[C@@H]([C@@H](CC1CCC(c2ccccc2)CC1)C(=O)N[C@H](C(=O)Nc1nccs1)C(C)(C)C)N(O)C=O (stereo partly specified) | 213 to 214
CCOC(=O)C(=NO)c1c[nH]c2c(CC)cccc12 | 167 to 169
CCn1c(=O)c2c(nc(/C=C/c3cccc(O)c3)n2C)n(CC)c1=O | 250 to 251
CCCCOCCOc1ccc(-c2ccc3c(c2)C=C(C(=O)Nc2ccc(S(=O)Cc4nccn4CC(=O)O)cc2)CCN3CC(C)C)cc1 (stereo unspecified) | 146 to 148
CCc1c(C#N)oc2ccc(Br)cc12 | 68 to 69
CCC1(O)CC(=O)OCc2c1cc1n(c2=O)Cc2c-1nc1ccccc1c2-c1ccccc1 (stereo unspecified) | > 250
Cc1c(-c2ccccc2)nn(N)c1OCCN1CCCC1 | 109
CCCCCCCCCCC[C@H](O)C[C@@H]1OC(=O)[C@H]1CCCCCC | 61 to 62
Cc1cc2cc(CN3CCCC3)cnc2cc1NC(=O)c1ccc(-c2cc3ccccc3o2)cc1 | 219

Results, then the compound that gave them:

melting point [°C] | SMILES
255 | CC(C)c1ccc(C(=O)C2=C(O)C(=O)N(c3ccc(O)nn3)C2c2ccc(OC(F)(F)F)cc2)cc1 (stereo unspecified)
152 | CCC1=NNC(C)=C(C(=O)OCc2ccco2)C1c1cccc([N+](=O)[O-])c1 (stereo unspecified)
232 to 234 | O=C1C=CC=C2CN=CC=C12
83 | CCCCCCCCCCCCCC(=O)c1cc(O)c(C)cc1O
117 to 119 | Cc1nc(-c2cncc(F)c2)sc1N(C)C(=S)NC1CC1
303 to 305 | Cc1nn(C)c2c(=O)[nH]cnc12
109 to 110 | CC(=O)N[C@@H](C)COC1CCN(c2nc3cc(OCC4CCC4)ccc3o2)CC1
225 | CC1=C(C#N)C(c2ccccc2[N+](=O)[O-])C(C(=O)O)=C(C)N1 (stereo unspecified)
100 to 101 | Cc1cc(I)cc2c1oc(=O)n2C
108 to 110 | CC(C)c1cccc(C(C)C)c1NC(=O)C(C)(C)CCCOc1ccc2c(c1)C=C(c1nccn1C)C(CCc1ccccc1)O2 (racemic)
254 | Cn1c(-c2ccc(C=Cc3ccc(-c4ccccc4)cc3)cc2)cc2ccccc21
121 to 122 | CCCc1nc2ccc(N)cc2n1Cc1ccccc1Cl
182 to 183 | O=C1c2ccccc2C(Cc2ccnc(Br)c2)(Cc2ccnc(Br)c2)c2ccccc21
128 to 130 | CONC(=O)Nc1ccc(-c2sc3c(c2CN(C)C(C)c2ccccc2)c(=O)n(-c2ccc(F)cn2)c(=O)n3Cc2c(F)cccc2F)cc1 (stereo unspecified)
169 to 171 | Cc1cc(N2CCN(C(=O)NCCCCC3CCSS3)CC2)ccc1N=C(N)c1cccs1 (stereo unspecified)
103 to 106 | Cc1c(Cl)cccc1S(=O)(=O)Nc1nc(CC(=O)N2CCSCC2)cs1
97 to 99 | Cn1c(COc2ccc(CC3SC(=O)N(C(c4ccccc4)(c4ccccc4)c4ccccc4)C3=O)cc2)nc2ccc(Cl)nc21 (stereo unspecified)
208 to 211 | O=C1NCCN1c1ccc(S(=O)(=O)Nc2cccc(Oc3ccccc3)c2)cc1
95 to 97 | COc1ccc(C2(CCN3CCC(C(O)(c4ccccc4)c4ccccc4)CC3)CCN(C(=O)c3cc(OC)c(OC)c(OC)c3)C2)cc1OC (stereo unspecified)
173 to 176 | Cc1ccc(S(=O)(=O)C2(CCCC#Cc3cccnc3)SC(=O)NC2=O)cc1 (stereo unspecified)
164 | CNC(=S)Nc1ccc(Cl)nc1
195 to 197 | O=[N+]([O-])c1cnn2c(-c3ccccc3C(F)(F)F)ccnc12
150 to 153 | O=S(=O)(c1ccccc1)c1c[nH]c2ccc(CCN3CCN(Cc4ccccc4)CC3)cc12
> 280 | Nc1c(F)c(N2Cc3cccc(Cl)c3C2)c(F)c2c1c(=O)c(C(=O)O)cn2C1CC1
97 to 99 | Cc1cc(Cl)ccc1N=CN(C)SN(Cc1ccccc1)Cc1ccccc1
92 to 94 | CC(O)c1ccc(CNC(=O)c2cccnc2Oc2cccnc2)s1 (stereo unspecified)

melting point [°C] | SMILES
92.5 to 93.5 | COc1ccc2c(c1)CCN2c1cccc(C#N)c1
110 to 120 | COc1cc(C(=O)N2CCC(CCN3CCC(Nc4nc5ccccc5n4Cc4ccc(Cl)s4)CC3)(c3ccc(F)c(F)c3)C2)cc(OC)c1OC (stereo unspecified)
> 300 | Cc1[nH]c(=O)c2c(ccc3nc(Nc4c(Cl)cccc4Cl)[nH]c32)c1C
153 to 154 | O=Cc1cn(-c2ccccc2)nc1OCc1ccccc1
259 to 261 | O=C(O)COc1c(Br)cc(-c2c3ccccc3c(Br)c3sc4ccccc4c23)cc1Br
184 to 185 | CC(C)n1nc(-c2c(-c3ccccc3)nn3ccc(C(=O)N4CCC(c5ccccc5)CC4)cc23)ccc1=O
184 | COc1ccc2c(c1)c(-c1cc3c(OC)ncnc3[nH]1)cn2C
134 to 136 | Cc1ccc(Cl)c(Nc2ccccc2C(N)=S)c1Cl
257 | COc1cc(C(=O)c2ncc3ccc(NC(C)=O)cn23)ccc1[N+](=O)[O-]
108 to 110 | O=C(C1CC1)N1CCCc2oc(-c3ccccc3)cc2C1
133 to 135 | N#CC1(N2CCN(c3ccccc3)CC2)CCCCC1
306 | COc1ccccc1-n1c(=O)[nH]c2c(C(N)=O)nc(-c3ccc4nc[nH]c4c3)nc21
101 to 104 | CS(=O)(=O)OCCn1nccc1NC=O
128 | C=C(C(=O)O)c1ccc(OC)c(OC)c1
188 to 191 | COc1ccccc1N(CN1C(=O)CSC1=O)C(=O)CCl
178 to 180 | C[C@]1(N2Cc3c(OCc4ccc(CN5CCOCC5)cc4)cccc3C2=O)CCC(=O)NC1=O
219 to 220 | Nc1ccc(S(=O)(=O)c2cc(-c3cccc(C(F)(F)F)c3)nc(N3CCCC3)c2)cc1
206 to 208 | CC(C)(COc1ccc(Cl)cc1)C(=O)C(Oc1ccc(Cl)cc1)n1cncn1 (stereo unspecified)
153 to 155 | CCC(C(=O)O)N(C(=O)c1cnn(-c2ccc(F)cc2)c1)c1ccc(OCC(C)(C)C)c(C#N)c1 (stereo unspecified)
77 to 79 | Cc1cc(C2OCCO2)ncc1[N+](=O)[O-]
182 | Cc1cccc(NC(=O)NC(Cc2ccccc2)C(=O)O)c1 (racemic)
38.1 | CCCCCc1ccc(-c2ccc(C(C)OC(=O)CCC)cc2)cc1 (single isomer, unassigned; (+))
234 to 236 | CCn1c(=O)oc2cc(N3C[C@H](C(N)=O)OC3=O)ccc21
166 to 168 | O=c1cc(-c2ccccc2)oc2cccc(OCCCCCCI)c12
261 to 264 | CCCCn1nnnc1-c1c(O)ccc(-c2cccc(C(=O)O)c2)c1O
82 to 83 | CCN(CC)S(=O)(=O)c1cc(Cl)c(Cl)c(Cl)c1SCCl
